The values that follow come from patent publication US8614246B2, “Indole derivatives for treating neurodegenerative diseases” (Centre National de la Recherche Scientifique (CNRS), priority 2009, dated 2013).

Molecules are shown by their SMILES.

The series can be described thus: Study of the passage through the blood-brain barrier (HPLC-MS/MS of brain extracts). In kind it is in vivo, mice. As to conditions: for average concentration of compound 2c in brain extracts: 5-day sub-chronic, ± SEM, n=8. The procedure: The purpose of this study is to use HPLC coupled with a mass spectrometer to verify the presence of molecule 2c according to the invention […] hydrochloride of molecule 2c (2c/HCl) by oral or intra-peritoneal (IP)pathway.
Animals: Male RjOrl: SWISS mice approximately 5 weeks old and weighing between 20 and 24 g on arrival (from the R Janvier Breeding Centre, France) are kept in the animal house at constant temperature (22±1° C.) and under controlled hygrometry (55±20%) with a 12 hours light/darkness cycle (8 h00-20 h00). The mice were allowed free access to food and drink during the acclimatisation and study period. All experiments took place in accordance with the conditions defined in decree No. 2001-464, May 29, 2001 dealing with experiments on animals.
Treatments: Two 5-day sub-chronic treatments were done (oral or intra-peritoneal pathway): • Treatment by Intra-Peritoneal Pathway (IP):
The solution of hydrochloride of 2c/HCl to be injected is prepared in the carrier (10% Tween20+20% DMSO+70% NaCl at 09% in water) at a concentration of 2.0 g/L. Three groups were formed: • (1) mice that received the carrier through the IP pathway, at 10 mL/kg (group N, n=4), • (2) mice treated with 2c/HCl by IP pathway, at 20 mg/kg and at 10 mL/kg (group R, n=6), and • (3) Control mice that received no treatment (n=2).
The treated mice R4, R5 and R6 and the carrier mice N1, N2, N3 and N4 received the following treatments:
The solution of hydrochloride of 2c to be administered is prepared in the carrier (0.5% Tween80+99.5% carboxy-methyl cellulose at 1%, in 0.9% NaCl in water) at a concentration of 15.0 g/L.
(2) mice treated with 2c/HCl by oral pathway at 150 mg/kg and at 10 mL/kg (Group B, n=6), and
All mice were treated twice per day for 4 days. On the 5th day, they received a final treatment and were euthanized between 3 h00 and 7 h30 after this last treatment, according to the following scheme:
Euthanasia: The mice are anaesthetised by the injection of 0.1 mL of a solution of sodium pentobarbital at 6% and an perfusion is then done on the mice so as to remove all traces of blood from the brain, with an 0.9% NaCl solution that contains heparin (200 μL of heparin choay at 5000 UI/mL in 1 liter of 0.9% NaCl). An perfusion with a minimum of 50 mL of this solution is done on each animal. The mouse brain is removed. The cerebellum, the brain stem and olfactory bulbs are eliminated.
The 3 parts of the brain are frozen in isopentane at −30° C. for one minute, and then kept separately at −80° C. […]
However, only parts 1 of the mice brains were extracted and analysed so as to keep samples for future analyses. […]
Instrumentation and conditions for analysis of compound 2c: Detection and quantification based on the area of the peaks are done using HPLC-MS/MS, in MRM mode. […]

With `CCCCCCCCCCCCCCCCNCCc1c[nH]c2ccccc12` [Compound 2c, N-(2-(1H-indol-3-yl)ethyl)hexadecan-1-amine], the “average concentration of compound 2c in brain extracts” value came to 14.73 ng/mL (mice, IP, 2c/HCl 20 mg/kg) and 21.25 ng/mL (mice, per os, 2c/HCl 150 mg/kg twice per day (300 mg/kg/d)). The “crossing of the BBB in vivo” value (mice, after IP and after per os administration of 2c/HCl) was “capable of crossing the BBB in vivo”. In addition, where the note is “per os 300 mg/kg/d vs IP 20 mg/kg/d”, the “brain concentration after per os treatment relative to IP treatment” value is on record as “about 1.5 times”.
